Converted amounts (≈) assume the structure as drawn. Read-outs that look alike come from different tables or passages of the source.
Tests used:
BsSecA [1] = molecular target: T1, BsSecA (Bacillus subtilis, UniProt P28366); assay: biochemical; assay type: biochemical, B. subtilis
EcSecA N68 = EcSecA N68 (Escherichia coli, UniProt P10408); assay: biochemical; assay type: biochemical, E. coli
EcSecA [2] = molecular target: T2, EcSecA (Escherichia coli, UniProt P10408); assay: biochemical; set-up: species or system E. coli; settings: IC50, Intrinsic ATPase, Table 1, full-length EcSecA
Target sequence in this assay (P10408 whole entry): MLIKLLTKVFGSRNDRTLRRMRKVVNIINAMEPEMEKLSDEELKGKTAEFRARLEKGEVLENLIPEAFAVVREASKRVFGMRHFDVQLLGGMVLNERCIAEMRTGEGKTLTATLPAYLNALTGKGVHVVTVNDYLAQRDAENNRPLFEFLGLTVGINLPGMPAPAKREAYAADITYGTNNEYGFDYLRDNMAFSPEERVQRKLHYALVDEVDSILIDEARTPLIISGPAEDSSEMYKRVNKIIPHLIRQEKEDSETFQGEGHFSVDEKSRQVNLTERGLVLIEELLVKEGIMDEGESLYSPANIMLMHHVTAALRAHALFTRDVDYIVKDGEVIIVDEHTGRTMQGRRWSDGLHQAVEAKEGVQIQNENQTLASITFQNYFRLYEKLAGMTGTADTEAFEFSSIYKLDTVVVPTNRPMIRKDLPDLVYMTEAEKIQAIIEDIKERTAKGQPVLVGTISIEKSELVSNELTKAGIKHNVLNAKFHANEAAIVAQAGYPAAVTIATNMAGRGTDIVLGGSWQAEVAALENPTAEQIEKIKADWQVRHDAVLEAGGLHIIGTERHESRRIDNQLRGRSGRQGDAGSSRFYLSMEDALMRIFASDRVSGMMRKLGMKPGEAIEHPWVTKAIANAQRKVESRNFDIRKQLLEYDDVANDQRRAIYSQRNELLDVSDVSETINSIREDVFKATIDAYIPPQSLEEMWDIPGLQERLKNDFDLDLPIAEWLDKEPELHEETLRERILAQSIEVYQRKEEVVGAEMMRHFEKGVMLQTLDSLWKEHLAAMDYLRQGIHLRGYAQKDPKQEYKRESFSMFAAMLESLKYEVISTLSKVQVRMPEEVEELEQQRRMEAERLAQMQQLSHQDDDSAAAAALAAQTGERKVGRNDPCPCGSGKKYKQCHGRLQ

BaSecA1 = BaSecA1 (Bacillus anthracis, UniProt Q81X26); assay: cell-based; settings: IC50, Ion Channel activity, BGaSecA 1
Chain of BaSecA1 (Q81X26 whole entry, looked up): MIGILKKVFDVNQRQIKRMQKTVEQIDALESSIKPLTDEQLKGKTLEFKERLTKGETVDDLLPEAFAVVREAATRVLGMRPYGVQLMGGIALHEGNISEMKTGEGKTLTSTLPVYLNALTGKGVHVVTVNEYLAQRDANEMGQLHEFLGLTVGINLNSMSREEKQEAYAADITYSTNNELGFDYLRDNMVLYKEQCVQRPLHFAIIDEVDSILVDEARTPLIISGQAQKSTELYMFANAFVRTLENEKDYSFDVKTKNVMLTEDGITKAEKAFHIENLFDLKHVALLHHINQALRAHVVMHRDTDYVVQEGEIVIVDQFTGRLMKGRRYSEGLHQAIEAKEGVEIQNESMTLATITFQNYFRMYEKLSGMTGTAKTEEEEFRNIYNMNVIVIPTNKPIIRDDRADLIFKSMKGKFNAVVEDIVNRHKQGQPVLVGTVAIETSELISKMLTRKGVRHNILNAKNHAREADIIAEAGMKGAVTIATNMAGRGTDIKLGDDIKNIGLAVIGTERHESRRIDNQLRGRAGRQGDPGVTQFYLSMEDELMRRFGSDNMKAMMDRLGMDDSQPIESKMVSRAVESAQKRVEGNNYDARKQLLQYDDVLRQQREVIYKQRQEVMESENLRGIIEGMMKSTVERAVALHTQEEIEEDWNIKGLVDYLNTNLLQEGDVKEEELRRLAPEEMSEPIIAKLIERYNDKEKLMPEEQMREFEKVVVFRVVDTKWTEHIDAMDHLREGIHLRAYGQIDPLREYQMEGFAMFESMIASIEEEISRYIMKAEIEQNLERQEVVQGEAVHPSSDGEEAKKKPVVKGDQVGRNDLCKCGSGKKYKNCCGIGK

PaSecA = PaSecA (Pseudomonas aeruginosa, UniProt Q9LCT3); assay: cell-based; assay type: cell-based; settings: IC50, Ion Channel activity, PASecA, Table 1
BsSecA [3] = molecular target: T1, BsSecA; assay: cell-based; set-up: species or system B. subtilis; settings: IC50, Ion Channel activity, BsSecA, Table 1
MsSecA = MsSecA (Mycolicibacterium smegmatis, UniProt P71533); assay: SecA-liposomes ion-channel activity in oocytes, MsSecA; assay type: cell-based; settings: Table 1
MtbSecA = MtbSecA (Mycobacterium tuberculosis, UniProt P9WGP5); assay: cell-based
SpSecA = SpSecA (Streptococcus pyogenes, UniProt Q99Y96); assay type: cell-based; settings: read-out: IC50, Ion Channel activity, SpSecA
Chain of SpSecA (Q99Y96 whole entry): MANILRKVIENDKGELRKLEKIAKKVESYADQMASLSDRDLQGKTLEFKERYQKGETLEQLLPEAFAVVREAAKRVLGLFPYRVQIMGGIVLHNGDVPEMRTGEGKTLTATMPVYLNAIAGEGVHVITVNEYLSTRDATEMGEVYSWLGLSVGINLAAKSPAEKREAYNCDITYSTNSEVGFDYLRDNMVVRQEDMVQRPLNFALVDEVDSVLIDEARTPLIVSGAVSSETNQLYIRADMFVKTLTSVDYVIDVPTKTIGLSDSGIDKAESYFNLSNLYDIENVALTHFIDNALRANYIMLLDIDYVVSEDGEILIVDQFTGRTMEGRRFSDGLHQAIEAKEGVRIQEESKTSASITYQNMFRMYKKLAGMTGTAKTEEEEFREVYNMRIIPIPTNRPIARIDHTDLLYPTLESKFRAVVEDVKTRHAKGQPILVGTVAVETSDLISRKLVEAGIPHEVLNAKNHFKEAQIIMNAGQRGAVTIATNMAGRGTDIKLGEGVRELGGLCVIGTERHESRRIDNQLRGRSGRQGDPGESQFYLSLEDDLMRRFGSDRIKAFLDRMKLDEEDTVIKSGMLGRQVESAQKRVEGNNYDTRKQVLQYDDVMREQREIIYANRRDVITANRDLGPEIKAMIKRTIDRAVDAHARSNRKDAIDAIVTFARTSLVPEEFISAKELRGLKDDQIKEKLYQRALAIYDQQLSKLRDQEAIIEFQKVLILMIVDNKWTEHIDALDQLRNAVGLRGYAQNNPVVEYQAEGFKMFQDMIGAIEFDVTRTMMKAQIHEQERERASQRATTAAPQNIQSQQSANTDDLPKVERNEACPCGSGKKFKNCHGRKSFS

B. anthracis Sterne = assay: microbe, parasite or virus in culture; assay type: cell-based; settings: Bacillus anthracis, read-out: Bacteriostatic MIC95, B. anthracis Sterne
[4] = test system: secretion of α-hemolysin, enterotoxin B and TSST-1 by S. aureus Mu50; assay type: cell-based
[5] = Bactericidal effect in the dark and under light (photooxidation); assay type: cell-based; settings: under light versus dark
EcSecA [6] = molecular target: T2, EcSecA; assay: cell-based
Target sequence in this assay (P10408 whole entry): as the sequence (P10408 whole entry) above

EcSecA [7] = molecular target: T2, EcSecA; assay: biochemical; settings: IC50, Translocation ATPase, Table 1
Target sequence in this assay (P0AG99 whole entry): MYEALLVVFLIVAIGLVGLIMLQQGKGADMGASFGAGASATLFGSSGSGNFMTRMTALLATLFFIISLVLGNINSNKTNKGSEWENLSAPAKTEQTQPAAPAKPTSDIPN
Target sequence in this assay (P10408 whole entry): as the sequence (P10408 whole entry) above
Target sequence in this assay (P0AGA2 whole entry, further chain): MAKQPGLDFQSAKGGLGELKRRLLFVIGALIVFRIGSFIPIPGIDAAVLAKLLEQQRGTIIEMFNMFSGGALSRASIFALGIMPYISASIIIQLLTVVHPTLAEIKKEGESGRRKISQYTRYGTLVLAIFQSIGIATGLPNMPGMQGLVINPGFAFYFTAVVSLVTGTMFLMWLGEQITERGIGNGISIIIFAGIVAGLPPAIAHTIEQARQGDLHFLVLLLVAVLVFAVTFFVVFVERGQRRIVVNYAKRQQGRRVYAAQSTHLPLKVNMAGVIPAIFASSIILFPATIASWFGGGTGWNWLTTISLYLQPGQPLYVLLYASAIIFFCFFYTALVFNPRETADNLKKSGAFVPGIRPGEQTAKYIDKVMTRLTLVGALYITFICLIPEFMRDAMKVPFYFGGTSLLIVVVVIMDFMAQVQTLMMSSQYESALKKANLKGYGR
Target sequence in this assay (P0AG96 whole entry, further chain): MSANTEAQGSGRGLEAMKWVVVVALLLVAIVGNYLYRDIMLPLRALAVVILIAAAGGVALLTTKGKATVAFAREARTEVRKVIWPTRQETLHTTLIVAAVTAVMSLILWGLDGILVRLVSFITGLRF

EcSecA [8] = molecular target: T2, EcSecA; assay: biochemical; settings: IC50, Protein Translocation, Table 1
Target sequence in this assay (P0AG99 whole entry): as the sequence (P0AG99 whole entry) above
Target sequence in this assay (P10408 whole entry): as the sequence (P10408 whole entry) above
Target sequence in this assay (P0AGA2 whole entry, further chain): as the sequence (P0AGA2 whole entry, further chain) above
Target sequence in this assay (P0AG96 whole entry, further chain): as the sequence (P0AG96 whole entry, further chain) above

S. aureus Mu3 = assay: Bacteriostatic effect, S. aureus Mu3; settings: Staphylococcus aureus, MU3, read-out: Bacteriostatic effect, MIC, S. aureus Mu3
S. aureus Mu50 = assay: Bacteriostatic effect, S. aureus Mu50; settings: Staphylococcus aureus
S. aureus 6538 = assay: Bacteriostatic effect, S. aureus 6538; settings: Staphylococcus aureus, 6538, read-out: Bacteriostatic effect, MIC, S. aureus 6538
S. aureus N315 = assay: Bacteriostatic effect, S. aureus N315; settings: Staphylococcus aureus, N315, read-out: Bacteriostatic effect, MIC, S. aureus N315
BsSecA2 = settings: read-out: IC50, Intrinsic ATPase, BsSecA2; Table 1
S. aureus 8325-4 = assay: Bacteriostatic effect, S. aureus 8325-4 (WT); settings: Staphylococcus aureus, 83254, read-out: Bacteriostatic effect, MIC, WT 8325-4
SaSecA2 = molecular target: T3, SaSecA2 (Staphylococcus aureus, UniProt Q2FUW6); assay: ATPase activity assay (malachite green), SaSecA2
T3 sequence (Q2FUW6 1-796): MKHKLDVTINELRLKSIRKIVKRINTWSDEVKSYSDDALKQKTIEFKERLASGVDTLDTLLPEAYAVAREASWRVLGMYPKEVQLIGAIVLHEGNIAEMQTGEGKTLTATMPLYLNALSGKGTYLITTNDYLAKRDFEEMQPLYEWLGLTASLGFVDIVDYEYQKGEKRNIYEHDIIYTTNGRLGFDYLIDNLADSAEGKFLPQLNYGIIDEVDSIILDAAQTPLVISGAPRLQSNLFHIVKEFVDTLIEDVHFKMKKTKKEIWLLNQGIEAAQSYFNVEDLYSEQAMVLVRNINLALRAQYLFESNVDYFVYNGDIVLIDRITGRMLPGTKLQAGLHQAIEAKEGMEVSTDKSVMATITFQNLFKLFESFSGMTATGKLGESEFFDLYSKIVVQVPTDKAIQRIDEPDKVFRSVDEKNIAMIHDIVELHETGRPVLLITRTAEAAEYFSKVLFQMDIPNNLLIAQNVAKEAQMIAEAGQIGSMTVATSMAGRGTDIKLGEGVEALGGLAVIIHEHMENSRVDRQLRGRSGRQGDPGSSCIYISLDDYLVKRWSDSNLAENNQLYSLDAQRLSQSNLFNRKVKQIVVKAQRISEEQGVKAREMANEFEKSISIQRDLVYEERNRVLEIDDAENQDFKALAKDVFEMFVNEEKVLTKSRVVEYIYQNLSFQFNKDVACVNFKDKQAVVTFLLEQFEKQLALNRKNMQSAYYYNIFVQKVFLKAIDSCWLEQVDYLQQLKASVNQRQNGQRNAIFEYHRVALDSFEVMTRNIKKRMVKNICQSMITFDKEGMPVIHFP

[9] = test system: S. aureus deletion strains (NorA−, MepA−) and strains (NorA++, MepA++) with over-expressed efflux pumps; assay: Antimicrobial effect with deletion or over expression of efflux pumps in S. aureus; settings: for Bactericidal (killing) effect with over expression of efflux pumps / MIC (bacteriostatic) with over expression of efflux pumps: wild type, NorA−/MepA− and NorA++/MepA++ strains
S. pyogenes, MGAS5005 = assay: MIC95, S. pyogenes MGAS5005; assay type: cell-based; settings: Streptococcus pyogenes, MGAS5005; read-out: MIC95, S. pyogenes MGAS5005
SaSecA1 = molecular target: T4, SaSecA1 (Staphylococcus aureus, UniProt O06446); assay: cell-based
T4 sequence (O06446 1-843): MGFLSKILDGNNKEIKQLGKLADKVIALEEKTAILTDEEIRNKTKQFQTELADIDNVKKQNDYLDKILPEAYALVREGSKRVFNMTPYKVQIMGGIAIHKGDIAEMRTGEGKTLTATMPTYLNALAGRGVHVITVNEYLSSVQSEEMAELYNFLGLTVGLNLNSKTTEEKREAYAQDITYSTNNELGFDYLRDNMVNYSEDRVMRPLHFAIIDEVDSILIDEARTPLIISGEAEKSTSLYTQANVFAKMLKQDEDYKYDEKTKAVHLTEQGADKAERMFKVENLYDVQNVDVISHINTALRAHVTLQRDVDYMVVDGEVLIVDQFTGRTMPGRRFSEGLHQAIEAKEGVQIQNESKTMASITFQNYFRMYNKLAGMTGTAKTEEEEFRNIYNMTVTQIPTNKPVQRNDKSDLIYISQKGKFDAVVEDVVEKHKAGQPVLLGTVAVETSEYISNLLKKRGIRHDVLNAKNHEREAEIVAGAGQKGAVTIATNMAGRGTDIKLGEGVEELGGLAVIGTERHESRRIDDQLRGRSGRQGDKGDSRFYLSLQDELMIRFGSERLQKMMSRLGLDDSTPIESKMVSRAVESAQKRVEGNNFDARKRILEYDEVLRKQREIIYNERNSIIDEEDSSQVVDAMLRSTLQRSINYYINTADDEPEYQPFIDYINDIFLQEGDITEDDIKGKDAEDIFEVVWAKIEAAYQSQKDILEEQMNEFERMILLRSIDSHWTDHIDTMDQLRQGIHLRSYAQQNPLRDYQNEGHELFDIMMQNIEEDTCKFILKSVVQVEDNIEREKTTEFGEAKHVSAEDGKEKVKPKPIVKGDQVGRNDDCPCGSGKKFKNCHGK

[10] = MU50, read-out: Bacteriostatic MIC95, S. aureus Mu50, Table 2
[11] = MU50, read-out: MIC95 against drug resistant S. aureus Mu50
[12] = IC50, Intrinsic ATPase, SaSecA2, Table 1

T1 sequence (P28366 whole entry): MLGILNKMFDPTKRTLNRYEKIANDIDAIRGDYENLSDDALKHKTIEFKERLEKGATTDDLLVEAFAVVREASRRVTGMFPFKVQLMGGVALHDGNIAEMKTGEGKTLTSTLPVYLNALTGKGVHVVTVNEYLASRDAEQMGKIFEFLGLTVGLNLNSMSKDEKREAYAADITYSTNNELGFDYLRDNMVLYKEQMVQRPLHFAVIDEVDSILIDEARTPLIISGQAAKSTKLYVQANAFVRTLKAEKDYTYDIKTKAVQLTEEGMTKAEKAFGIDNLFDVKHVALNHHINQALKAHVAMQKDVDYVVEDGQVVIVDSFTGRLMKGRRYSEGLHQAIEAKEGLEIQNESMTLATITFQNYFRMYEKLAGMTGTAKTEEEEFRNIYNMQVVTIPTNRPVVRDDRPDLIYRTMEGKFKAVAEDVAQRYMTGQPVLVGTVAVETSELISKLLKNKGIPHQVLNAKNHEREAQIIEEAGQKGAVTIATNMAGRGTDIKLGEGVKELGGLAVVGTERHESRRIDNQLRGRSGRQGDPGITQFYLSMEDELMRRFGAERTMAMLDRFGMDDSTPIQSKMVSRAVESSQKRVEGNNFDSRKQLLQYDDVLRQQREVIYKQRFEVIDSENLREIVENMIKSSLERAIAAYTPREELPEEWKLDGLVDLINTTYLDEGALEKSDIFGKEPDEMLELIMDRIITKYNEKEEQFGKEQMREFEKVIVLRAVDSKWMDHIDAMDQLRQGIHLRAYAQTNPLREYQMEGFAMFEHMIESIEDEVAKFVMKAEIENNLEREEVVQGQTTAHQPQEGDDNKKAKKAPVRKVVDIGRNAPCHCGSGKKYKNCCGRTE
Chain of EcSecA N68 (P10408 1-610): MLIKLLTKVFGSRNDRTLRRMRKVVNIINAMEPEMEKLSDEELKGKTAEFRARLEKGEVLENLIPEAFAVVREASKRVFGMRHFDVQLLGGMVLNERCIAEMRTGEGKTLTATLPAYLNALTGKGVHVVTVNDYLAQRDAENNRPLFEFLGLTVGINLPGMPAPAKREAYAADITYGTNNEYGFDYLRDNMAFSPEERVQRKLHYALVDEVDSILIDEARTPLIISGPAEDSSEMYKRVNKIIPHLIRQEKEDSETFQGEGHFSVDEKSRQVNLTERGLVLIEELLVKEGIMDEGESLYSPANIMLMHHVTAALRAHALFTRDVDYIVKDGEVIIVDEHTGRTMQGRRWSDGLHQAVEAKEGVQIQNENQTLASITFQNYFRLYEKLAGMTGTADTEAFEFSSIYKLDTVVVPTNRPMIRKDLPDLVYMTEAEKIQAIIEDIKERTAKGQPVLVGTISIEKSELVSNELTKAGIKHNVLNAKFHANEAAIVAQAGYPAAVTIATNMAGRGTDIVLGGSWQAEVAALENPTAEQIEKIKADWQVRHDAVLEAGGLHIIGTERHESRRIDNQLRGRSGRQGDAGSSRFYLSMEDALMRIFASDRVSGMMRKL

## Oc1ccc2c(c1)Oc1cc(O)ccc1C2C1CCCC1 [SCA-41]
BsSecA [1]
  IC50: 30 µM
EcSecA N68
  IC50: 8 µM
EcSecA [2]
  IC50: 30 µM
BaSecA1
  IC50: 3.8 µM
PaSecA
  IC50: 3.6 µM
BsSecA [3]
  IC50: 3 µM
MsSecA
  IC50: 3.5 µM
MtbSecA
  IC50: 3.2 µM
SpSecA
  IC50: 3 µM
B. anthracis Sterne
  MIC: 1.1 µg/mL (≈ 3.9 µM)
[4]
  Amount of α-hemolysin, enterotoxin B, and TSST-1 in the supernatant: significantly decreased
[5]
  Effect of light on the bactericidal effect: not affected by light
EcSecA [6]
  IC50: 3.4 µM
EcSecA [7]
  IC50: 15 µM
EcSecA [8]
  IC50: 55 µM
S. aureus Mu3
  MIC: 14.1 µg/mL (≈ 49.9 µM)
S. aureus Mu50; [10]
  MIC: 1.7 µg/mL
S. aureus Mu50; MU50, read-out: Bacteriostatic effect MIC, S. aureus Mu50, Table 10 and Example 4
  MIC: 8.8 µg/mL
S. aureus Mu50; MU50, read-out: Bacteriostatic effect, MIC, S. aureus Mu50, Table 8
  MIC: 8.8 µg/mL
S. aureus Mu50; [11]
  MIC: 1.7 µM
S. aureus 6538
  MIC: 10.6 µg/mL (≈ 37.5 µM)
S. aureus N315
  MIC: 14.1 µg/mL (≈ 49.9 µM)
BsSecA2
  IC50: 30 µM
S. aureus 8325-4
  MIC: 11.8 µg/mL (≈ 41.8 µM)
SaSecA2; IC50, ATPase activity, SaSecA2, Table 7
  IC50: 32.5 µM
SaSecA2; [12]
  IC50: 6 µM
[9]
  Change of MIC on overexpression or deletion of NorA or MepA: did not significantly change
  Bactericidal (killing) effect with over expression of efflux pumps: not attenuated
  MIC (bacteriostatic) with over expression of efflux pumps: did not increase

## O=C(O)c1ccccc1-c1c2ccc(=O)c(I)c-2oc2c(I)c(O)ccc12 [DI, Diiodofluorescein, reference compound]
EcSecA N68; read-out: IC50, EcN68 SecA ATPase (unregulated ATPase)
  IC50: 30 µM

## CN(C)c1ccc2c(c1)Oc1cc(N(C)C)ccc1C2C1CCCC1 [Compound 30, 9-Cyclopentyl-N3,N3,N6,N6-tetramethyl-9H-xanthene-3,6-diamine]
EcSecA N68; 100 μM, FIG. 1
  Inhibition of EcSecA N68 ATPase, initial screening: weak or no activity

## CSc1nc(Sc2nnc(-c3cc(C(F)(F)F)cc(C(F)(F)F)c3)[nH]2)cc(Sc2nnc(-c3cc(C(F)(F)F)cc(C(F)(F)F)c3)[nH]2)n1 [SCA-21]
BsSecA [1]
  IC50: > 100 µM
EcSecA N68
  IC50: 18 µM
EcSecA [2]
  IC50: 32 µM
BaSecA1
  IC50: 1.5 µM
BsSecA [3]
  IC50: 2.6 µM
MsSecA
  IC50: 2 µM
MtbSecA
  IC50: 2 µM
SpSecA
  IC50: 1 µM
B. anthracis Sterne
  MIC: 3 µg/mL (≈ 4.01 µM)
S. pyogenes, MGAS5005
  MIC: 0.39 µM (≈ 0.292 µg/mL)
EcSecA [6]
  IC50: 2.4 µM
SaSecA1
  IC50: 1.6 µM
EcSecA [7]
  IC50: 20 µM
EcSecA [8]
  IC50: 21 µM
S. aureus Mu50; [10]
  MIC: 1.5 µg/mL
S. aureus Mu50; [11]
  MIC: 1.5 µM
BsSecA2
  IC50: 45 µM
SaSecA2; [12]
  IC50: 43 µM
[9]
  Bactericidal (killing) effect with over expression of efflux pumps: not attenuated
  MIC (bacteriostatic) with over expression of efflux pumps: did not increase

Source: patent US9957247B2, “SecA inhibitors and methods of making and using thereof” (Georgia State University Research Foundation, Inc., priority 2012, dated 2018)
